{"source": "patent US20190202836A1", "about": "“SELECTIVE DUAL INHIBITORS OF PI3 DELTA AND GAMMA PROTEIN KINASES” (Rhizen Pharmaceuticals SA, priority 2014, published 2019)", "key": {"[1]": {"assay": "Metabolic stability in mouse liver microsomes", "format": "in vitro ADME", "conditions": "1 μM test item, 60 minutes, 37° C., NADPH", "method": "(§1) Metabolic stability studies were conducted on Compounds A, A1, and A2 as well as Example 128 of WO 2012/151525 using mouse, rat, dog, monkey, and human liver microsomes. The protocol for the studies with mouse, rat, and human liver microsomes (all from BD Gentest, USA) is provided below. 0.4 mg protein was preincubated with 2 mM NADPH (cofactor) in phosphate buffer (pH-7.4) for 15 minutes at 37° C. and then added with 1 μM test item and incubated further for 60 minutes in triplicate. The reaction mixture was terminated with methanol containing an internal standard and centrifuged further to analyze the test item remaining in the supernatant by LC-MS/MS. The percent parent compound remaining was calculated in comparison with similar samples terminated at 0 minutes."}, "[2]": {"assay": "Metabolic stability in monkey liver microsomes", "format": "in vitro ADME", "method": "as §1"}, "[3]": {"assay": "Metabolic stability in human liver microsomes", "format": "in vitro ADME", "conditions": "1 μM test item, 60 minutes, 37° C., NADPH", "method": "as §1"}, "[4]": {"assay": "Plasma protein binding (equilibrium dialysis), human", "format": "in vitro ADME", "conditions": "pH 7.4, 37° C.", "method": "Below is provided the procedure for measuring plasma protein binding (using an equilibrium dialysis method). 745 μL of plasma was transferred into a 2 ml micro centrifuge tube. To that 5 μL of Compound A1 (150 μM) was added. Samples were mixed in the table top vortexer for 2 minutes. 50 μL plasma (n=2) was transferred in a pre-labeled 1.5 mL micro centrifuge tube treated as 0 hour sample.\nThe remaining 650 μL plasma sample were incubated for 30 minutes at 37° C. in a water bath. After 30 minute incubation, 50 μL plasma (n=2) was removed in a pre-labelled 1.5 mL micro centrifuge tube treated as 0.5 hour sample. 200 μL of the plasma sample (n=2) was transferred into the sample chamber which was indicated by the red ring. The red insert was placed into the base plate and 350 μL of buffer was transferred into the buffer chamber. Plates were incubated at 37° C. at approximately 100 RPM on an orbital shaker or 20 RPM on an up-and-down shaker for 4 hours. 50 μL of post dialysis-sample from the buffer and the plasma chambers were transferred into a pre-labelled micro centrifuged tube. 50 μL of plasma was added to the buffer samples and an equal volume of buffer (KH2PO4 Buffer pH 7.4) to the collected plasma samples. 150 μL of methanol containing internal standard (Tolbutamide 250 ng/ml) was added to precipitate the protein and release compound. […]"}, "[5]": {"target": "PI3Kδ (Homo sapiens, UniProt O00329)", "sequence (O00329 whole entry)": "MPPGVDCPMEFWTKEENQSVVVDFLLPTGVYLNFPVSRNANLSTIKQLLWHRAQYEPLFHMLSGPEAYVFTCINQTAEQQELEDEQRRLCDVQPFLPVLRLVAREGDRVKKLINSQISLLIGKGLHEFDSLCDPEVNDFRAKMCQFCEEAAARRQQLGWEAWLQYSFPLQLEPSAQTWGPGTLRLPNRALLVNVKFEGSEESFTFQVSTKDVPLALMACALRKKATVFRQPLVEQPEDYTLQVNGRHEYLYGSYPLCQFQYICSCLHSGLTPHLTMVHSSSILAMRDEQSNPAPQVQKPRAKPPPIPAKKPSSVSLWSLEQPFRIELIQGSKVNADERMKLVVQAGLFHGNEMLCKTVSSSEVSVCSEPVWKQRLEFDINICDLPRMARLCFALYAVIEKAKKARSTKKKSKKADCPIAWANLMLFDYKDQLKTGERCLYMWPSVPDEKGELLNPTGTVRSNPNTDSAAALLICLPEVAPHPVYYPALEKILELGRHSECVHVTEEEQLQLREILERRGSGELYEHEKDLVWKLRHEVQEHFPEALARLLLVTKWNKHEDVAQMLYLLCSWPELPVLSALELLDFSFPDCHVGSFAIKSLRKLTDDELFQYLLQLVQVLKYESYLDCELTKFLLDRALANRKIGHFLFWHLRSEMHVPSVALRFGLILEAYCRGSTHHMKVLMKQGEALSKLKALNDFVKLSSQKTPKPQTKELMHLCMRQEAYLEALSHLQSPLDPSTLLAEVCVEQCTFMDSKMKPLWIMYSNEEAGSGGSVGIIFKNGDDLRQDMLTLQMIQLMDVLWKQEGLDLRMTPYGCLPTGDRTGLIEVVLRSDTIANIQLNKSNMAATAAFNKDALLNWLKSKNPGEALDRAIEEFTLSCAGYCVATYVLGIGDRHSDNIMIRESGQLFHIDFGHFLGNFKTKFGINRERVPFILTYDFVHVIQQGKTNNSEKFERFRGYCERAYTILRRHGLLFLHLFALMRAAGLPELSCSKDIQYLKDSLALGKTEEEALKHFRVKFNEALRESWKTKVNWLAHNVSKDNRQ", "sequence (P27986 whole entry partner)": "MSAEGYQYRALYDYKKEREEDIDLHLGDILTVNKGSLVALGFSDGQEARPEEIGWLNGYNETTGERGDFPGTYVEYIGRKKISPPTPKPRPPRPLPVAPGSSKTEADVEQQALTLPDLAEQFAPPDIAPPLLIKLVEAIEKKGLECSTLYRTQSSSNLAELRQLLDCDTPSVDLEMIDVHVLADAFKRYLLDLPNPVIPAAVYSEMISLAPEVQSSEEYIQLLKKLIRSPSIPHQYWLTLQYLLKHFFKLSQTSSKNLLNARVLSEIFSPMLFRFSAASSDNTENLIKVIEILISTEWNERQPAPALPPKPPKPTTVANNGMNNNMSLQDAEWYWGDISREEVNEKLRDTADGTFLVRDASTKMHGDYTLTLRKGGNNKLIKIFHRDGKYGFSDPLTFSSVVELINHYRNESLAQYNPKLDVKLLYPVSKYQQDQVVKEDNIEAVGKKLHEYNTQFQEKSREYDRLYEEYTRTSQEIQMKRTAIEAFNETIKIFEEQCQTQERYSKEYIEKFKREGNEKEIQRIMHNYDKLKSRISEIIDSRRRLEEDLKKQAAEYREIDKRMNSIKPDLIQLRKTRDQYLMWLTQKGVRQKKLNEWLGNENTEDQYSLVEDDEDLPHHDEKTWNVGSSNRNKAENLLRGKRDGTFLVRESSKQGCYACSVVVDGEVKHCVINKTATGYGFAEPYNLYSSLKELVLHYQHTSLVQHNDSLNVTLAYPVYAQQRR", "assay": "Assay 1: Fluorescent (HTRF) determination of PI3 kinase enzyme activity, PI3Kδ", "format": "biochemical", "excerpt": "(§2) Phosphoinositide 3 kinases (PI3K) belong to a class of lipid kinases that play a critical role in the regulation of several key cellular processes. The PI3K are capable of phosphorylating the 3-hydroxy position of phosphoinositols thereby generating second messengers involved in downstream signaling events. The homogenous time resolved fluorescence (HTRF) assay allows detection of 3,4,5-triphosphate (PIPS) formed as a result of phosphorylation of phosphotidylinositol 4,5-biphosphate (PIP2) by PI3K isoforms such as α, β, γ or δ.\n(§3) PI3K isoform activity for α, β, γ or δ was determined using a PI3K human HTRF™ Assay Kit (Millipore, Billerica, Mass.) with modifications. All incubations were carried out at room temperature. 0.5 μl of 40× inhibitor (in 100% DMSO) or 100% DMSO were added to each well of a 384-well white plate (Greiner Bio-One, Monroe, N.C.) containing 14.5 μl 1× reaction buffer/PIP2 (10 mM MgCl2, 5 mM DTT, 1.38 μM PIP2) mix with or without enzyme, followed by 5 μl/well of 400 μM ATP and incubated for an additional 30 minutes. The reaction was terminated by adding 5 μl/well stop solution (Millipore, Billerica, Mass.). 5 μl of detection mix (Millipore, Billerica, Mass.) was then added to each well and incubated for 6-18 hours in the dark. HRTF ratio was measured on a microplate reader (BMG Labtech., Germany) at an excitation wavelength of 337 nm and emission wavelengths of 665 and 615 nm with an integration time of 400 msec counting delay of 50 msec."}, "[6]": {"target": "PI3Kγ (Homo sapiens, UniProt P48736)", "sequence (P48736 whole entry)": "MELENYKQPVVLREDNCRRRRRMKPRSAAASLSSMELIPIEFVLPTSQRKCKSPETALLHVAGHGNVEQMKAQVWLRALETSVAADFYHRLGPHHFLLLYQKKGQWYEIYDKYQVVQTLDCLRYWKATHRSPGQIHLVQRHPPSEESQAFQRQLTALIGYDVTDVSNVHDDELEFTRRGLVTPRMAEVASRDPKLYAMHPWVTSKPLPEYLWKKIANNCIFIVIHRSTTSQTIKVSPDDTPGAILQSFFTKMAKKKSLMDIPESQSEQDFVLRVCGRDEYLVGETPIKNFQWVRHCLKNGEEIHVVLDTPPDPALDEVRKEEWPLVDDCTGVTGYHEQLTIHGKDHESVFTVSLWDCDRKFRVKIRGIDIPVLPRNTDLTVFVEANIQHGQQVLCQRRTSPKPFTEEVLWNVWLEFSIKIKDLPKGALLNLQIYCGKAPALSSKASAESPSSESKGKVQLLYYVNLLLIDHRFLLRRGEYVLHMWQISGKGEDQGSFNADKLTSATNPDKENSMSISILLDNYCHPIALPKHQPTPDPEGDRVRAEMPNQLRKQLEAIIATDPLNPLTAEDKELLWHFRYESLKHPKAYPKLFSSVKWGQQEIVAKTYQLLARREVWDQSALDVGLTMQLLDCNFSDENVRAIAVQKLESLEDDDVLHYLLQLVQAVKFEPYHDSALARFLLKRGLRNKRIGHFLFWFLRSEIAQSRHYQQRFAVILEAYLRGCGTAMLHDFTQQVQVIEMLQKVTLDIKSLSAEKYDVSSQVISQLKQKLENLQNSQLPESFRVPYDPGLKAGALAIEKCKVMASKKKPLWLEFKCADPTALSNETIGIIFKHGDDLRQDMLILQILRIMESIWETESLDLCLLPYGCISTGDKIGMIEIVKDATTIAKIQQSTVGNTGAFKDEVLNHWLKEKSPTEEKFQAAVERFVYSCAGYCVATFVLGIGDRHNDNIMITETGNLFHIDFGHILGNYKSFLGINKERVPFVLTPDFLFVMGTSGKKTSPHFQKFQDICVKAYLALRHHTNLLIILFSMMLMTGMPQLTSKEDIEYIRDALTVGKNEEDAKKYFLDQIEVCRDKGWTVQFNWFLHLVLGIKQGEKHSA", "assay": "Assay 1: Fluorescent (HTRF) determination of PI3 kinase enzyme activity, PI3Kγ", "format": "biochemical", "conditions": "read-out: IC50 (nM) PI3Kγ", "excerpt": "as §2, §3"}, "[7]": {"target": "T1, PI3K gamma (Mus musculus, UniProt Q9JHG7)", "T1 construct": "endogenous in cells; host or cells: RAW 264.7 macrophages", "T1 sequence (Q9JHG7 whole entry)": "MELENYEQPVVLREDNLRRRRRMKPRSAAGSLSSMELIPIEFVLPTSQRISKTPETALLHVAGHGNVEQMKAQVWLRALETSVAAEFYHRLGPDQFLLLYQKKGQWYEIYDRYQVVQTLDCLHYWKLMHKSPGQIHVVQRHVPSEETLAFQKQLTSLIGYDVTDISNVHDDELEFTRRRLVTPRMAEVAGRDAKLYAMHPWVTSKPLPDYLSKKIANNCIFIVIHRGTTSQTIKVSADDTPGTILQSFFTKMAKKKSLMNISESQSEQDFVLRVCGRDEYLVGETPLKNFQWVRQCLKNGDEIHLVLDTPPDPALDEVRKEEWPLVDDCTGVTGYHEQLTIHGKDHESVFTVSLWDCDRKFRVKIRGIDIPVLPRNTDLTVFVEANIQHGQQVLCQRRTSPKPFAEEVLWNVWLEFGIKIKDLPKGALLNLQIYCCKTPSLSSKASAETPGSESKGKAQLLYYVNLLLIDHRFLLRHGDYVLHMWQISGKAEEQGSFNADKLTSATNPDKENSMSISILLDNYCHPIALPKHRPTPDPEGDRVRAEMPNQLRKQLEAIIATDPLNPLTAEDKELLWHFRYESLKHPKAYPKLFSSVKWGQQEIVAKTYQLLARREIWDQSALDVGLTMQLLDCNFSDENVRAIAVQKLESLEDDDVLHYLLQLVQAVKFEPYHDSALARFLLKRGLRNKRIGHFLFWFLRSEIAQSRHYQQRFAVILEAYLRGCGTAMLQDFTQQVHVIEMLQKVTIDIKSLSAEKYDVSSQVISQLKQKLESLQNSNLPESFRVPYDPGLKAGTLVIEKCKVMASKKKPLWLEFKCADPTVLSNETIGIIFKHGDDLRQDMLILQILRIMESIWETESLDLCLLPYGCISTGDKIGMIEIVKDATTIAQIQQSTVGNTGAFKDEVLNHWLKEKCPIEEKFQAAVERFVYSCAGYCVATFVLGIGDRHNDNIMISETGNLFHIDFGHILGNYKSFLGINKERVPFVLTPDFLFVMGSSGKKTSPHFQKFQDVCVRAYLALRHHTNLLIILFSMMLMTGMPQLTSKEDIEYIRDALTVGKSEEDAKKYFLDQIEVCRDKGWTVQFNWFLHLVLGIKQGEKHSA", "assay": "Assay 4A3: c5a induced AktS473 phosphorylation in RAW 264.7 macrophages", "format": "cell-based", "conditions": "c5a 50 ng/ml, read-out: Cellular IC50 PI3K gamma (c5a induced pAKT in RAW macrophages)", "method": "The objective of this study was to determine the effect of Compound A1 on PI3Kγ kinase mediated c5a induced AktS473 phosphorylation in RAW 264.7 macrophages.\nRAW 264.7 cells were treated with desired concentrations of the test compound for 15 minutes. 1 ml of 2× c5a was added such that the final concentration was 50 ng/ml and incubated for 15 minutes.\nMedia was discarded and washed with 1 ml of ice-cold 1× PBS.\n250 μl of cell lysis buffer was added and incubated on ice for 30 minutes.\nSamples were centrifuged and supernatant was stored at −80° C. until analysis\nSamples were analyzed by Western Blotting using pAKT (S473) as the primary and anti-rabbit IgG-HRP as a secondary antibody.\nIntensity of the bands was determined using ImageJ 1.42q (NIH, USA) and normalized to Actin (loading control). Data was plotted using GraphPad Prism (Version 5.02)."}, "[8]": {"tested_on": "Female Wistar rats", "assay": "Assay 8: Lipopolysaccharide-induced rat air pouch model of inflammation", "format": "in vivo", "conditions": "Neutrophil, oral, 1, 3 and 10 mg/kg, pouch fluid 6 h after LPS, read-out: ED50, reduction of neutrophil migration into the rat air pouch", "method": "Female Wistar rats (175-200 g) were acclimatized for seven days prior to the start of the experiment. Animals were randomly distributed to various groups based on their body weights. Animals were anaesthetised with ether and subcutaneous air pouches were made by injecting 20 ml of sterile air under the skin in the intra-scapular area (day 0) and maintained with a second 10 ml injection of sterile-filtered air on day 4. On day 6, oral treatment was commenced 1 hour prior to induction of inflammation by s.c. injection of LPS solution on day 6. A volume of 5 ml of LPS solution dissolved in sterile saline (100 μg/kg) was injected into each pouch. Samples of pouch fluid were taken at 6 h after administration of LPS by flushing the pouch with 5 ml of sterile saline and withdrawing 4 ml of fluid. The number of leukocytes present in pouch fluid was determined microscopically using a haemocytometer. Differential cell content was determined by microscopic examination of fluid smears stained with Diff-Quik."}}, "data": [{"smiles": "COc1ccc(-c2nn([C@@H](C)c3oc4cccc(F)c4c(=O)c3-c3cccc(F)c3)c3ncnc(N)c23)cc1NS(C)(=O)=O", "note": "[Compound A1, (S)—N-(5-(4-amino-1-(1-(5-fluoro-3-(3-fluorophenyl)-4-oxo-4H-chromen-2-yl)ethyl)-1H-pyrazolo[3,4-d]pyrimidin-3-yl)-2-methoxyphenyl)methanesulfonamide]", "values": [{"measurement": "Metabolic stability in liver microsomes (percent parent compound remaining), Mouse", "setting": "[1]", "value": 85.9, "unit": "%"}, {"measurement": "Metabolic stability in liver microsomes (percent parent compound remaining), Monkey", "setting": "[2]", "value": 78.8, "unit": "%"}, {"measurement": "Metabolic stability in liver microsomes (percent parent compound remaining), Human", "setting": "[3]", "value": 95.7, "unit": "%"}, {"measurement": "fraction unbound at 4 h, 1 μM", "setting": "[4]", "value": 0.0276}, {"measurement": "IC50", "setting": "[5]", "value": 30.5, "unit": "nM"}, {"measurement": "IC50", "setting": "[6]", "value": 48.7, "unit": "nM"}, {"measurement": "IC50", "setting": "[7]", "value": 0.0517, "unit": "µM"}, {"measurement": "ED50", "setting": "[8]", "value": 2.65, "unit": "mg/kg"}]}]}
